In BindingDB's records for doi:10.1016/j.bmcl.2009.11.061 (Glaxosmithkline, 2010) one finds IC50 data, which are given here for eleven molecules.

The experiment in a line: Inhibition of GSK3beta phosphorylation in human BT474 cells.
What is called IC50 is the concentration that inhibits the measured activity by half. The low end stands for inhibition by little substance, the high end for a need for much substance. Take `Cc1occc1-c1nc(N)c(OC[C@@H](N)Cc2c(C#N)[nH]c3ccccc23)cc1-c1cnc2[nH]nc(C)c2n1` [3-((2S)-2-amino-3-(2-amino-5-(3-methyl-1H-pyrazolo[4,3-b]pyrazin-5-yl)-6-(2-methylfuran-3-yl)pyridin-3-yloxy)propyl)-1H-indole-2-carbonitrile]: the IC50 was over 30000 nM.
Next, `Cc1occc1-c1nc(N)c(OC[C@@H](N)Cc2c(C(N)=O)[nH]c3ccccc23)cc1-c1cnc2[nH]nc(C)c2n1` [3-((2S)-2-amino-3-(2-amino-5-(3-methyl-1H-pyrazolo[4,3-b]pyrazin-5-yl)-6-(2-methylfuran-3-yl)pyridin-3-yloxy)propyl)-1H-indole-2-carboxamide]: over 30000 nM.
Next, `Cc1occc1-c1nc(N)c(OC[C@@H](N)Cc2c[nH]c3ccccc23)cc1-c1ccc2[nH]nc(C)c2c1` [3-((S)-2-amino-3-(1H-indol-3-yl)propoxy)-5-(3-methyl-1H-indazol-5-yl)-6-(2-methylfuran-3-yl)pyridin-2-amine]: 220 nM; `Cc1occc1-c1nc(N)c(OC[C@@H](N)Cc2c[nH]c3ccccc23)cc1-c1cc2c(C)n[nH]c2cn1` [3-((S)-2-amino-3-(1H-indol-3-yl)propoxy)-5-(3-methyl-1H-pyrazolo[3,4-c]pyridin-5-yl)-6-(2-methylfuran-3-yl)pyridin-2-amine]: 680 nM.
Next, `Cc1occc1-c1nc(N)c(OC[C@@H](N)Cc2c[nH]c3ccccc23)cc1-c1cnc2[nH]nc(C)c2n1` [3-((S)-2-amino-3-(1H-indol-3-yl)propoxy)-5-(3-methyl-1H-pyrazolo[4,3-b]pyrazin-5-yl)-6-(2-methylfuran-3-yl)pyridin-2-amine]: 560 nM.
Regarding `Cc1occc1-c1nc(N)c(OC[C@@H](N)Cc2c(Cl)[nH]c3ccccc23)cc1-c1cnc2[nH]nc(C)c2n1` [3-((S)-2-amino-3-(2-chloro-1H-indol-3-yl)propoxy)-5-(3-methyl-1H-pyrazolo[4,3-b]pyrazin-5-yl)-6-(2-methylfuran-3-yl)pyridin-2-amine], the IC50 came out at 300 nM.
Under `Cc1occc1-c1nc(N)c(OC[C@@H](N)Cc2ccccc2)cc1-c1cnc2[nH]nc(C)c2n1` [3-((S)-2-amino-3-phenylpropoxy)-5-(3-methyl-1H-pyrazolo[4,3-b]pyrazin-5-yl)-6-(2-methylfuran-3-yl)pyridin-2-amine] stands 280 nM.
Next, `Cc1occc1-c1ncc(OC[C@@H](N)Cc2c[nH]c3ccccc23)cc1-c1cnc2[nH]nc(C)c2n1` [(2S)-1-(1H-indol-3-yl)-3-(5-(3-methyl-1H-pyrazolo[4,3-b]pyrazin-5-yl)-6-(2-methylfuran-3-yl)pyridin-3-yloxy)propan-2-amine]: 210 nM; `Cc1nc(-c2ccoc2)c(-c2cnc3[nH]nc(C)c3n2)cc1OC[C@@H](N)Cc1c[nH]c2ccccc12` [(S)-1-(6-(furan-3-yl)-2-methyl-5-(3-methyl-1H-pyrazolo[4,3-b]pyrazin-5-yl)pyridin-3-yloxy)-3-(1H-indol-3-yl)propan-2-amine]: 280 nM; `Cc1n[nH]c2ncc(-c3cc(OC[C@@H](N)Cc4c[nH]c5ccccc45)c(C#N)nc3-c3ccoc3)nc12` [(S)-3-(2-amino-3-(1H-indol-3-yl)propoxy)-6-(furan-3-yl)-5-(3-methyl-1H-pyrazolo[4,3-b]pyrazin-5-yl)picolinonitrile]: over 10000 nM.
`CCNc1nc(-c2ccoc2)c(-c2cnc3[nH]nc(C)c3n2)cc1OC[C@@H](N)Cc1ccccc1` [(S)-3-(2-amino-3-phenylpropoxy)-N-ethyl-6-(furan-3-yl)-5-(3-methyl-1H-pyrazolo[4,3-b]pyrazin-5-yl)pyridin-2-amine] gave an IC50 of over 10000 nM.
